Earlier results, collected in patent publication US20030171260A1, “Compositions and methods utilizing hydroxamates to scavenge oxidant toxins” (priority 2002, published 2003).
Counter-ions that a name gives are not always drawn.

| time to leave the vascular space after administration [min] | Structure (SMILES) | oral LD50 dose (rat; in vivo, po) | intraperitoneal LD50 dose (rat; intraperitoneal) [mg/kg] | subcutaneous LD50 dose (rat; subcutaneous) |
| --- | --- | --- | --- | --- |
| – | CCCCOc1ccc(CC(=O)NO)cc1 [bufexamac] | 3,370 mg/kg | 805 | > 5,000 mg/kg |
| ≤ 60 | CC(=O)N(O)CCCCCNC(=O)CCC(=O)N(O)CCCCCNC(=O)CCC(=O)N(O)CCCCCN [desferoxamine mesylate] | – | – | – |
